Key:
[1] = test system: colds due to picornaviruses; details: cited from earlier work
[2] = Intranasal tolerability of aqueous PVP-I preparations (inventors' finding); assay type: in vivo, human; details: repeated, frequent use
Source text: With respect to the intranasal tolerability of PVP-I, as distinct from ciliotoxicity, the present inventors have discovered that when the concentration of PVP-I in aqueous preparations is greater than 1.0%, the preparation may be irritating to the nasal mucosa in some individuals and not suitable for repeated, frequent and general use, as would be required in the effective treatment or prevention of the common cold. On this consideration, a preferred composition for nasal use is a concentration of PVP-I at or below 1.0%.

[3] = test system: herpes simplex virus (HSV); details: Wutzler et al (2002); cited from earlier work
[4] = test system: granulocytes; details: Van den Broek et al (1982); cited from earlier work
[5] = test system: nasal cilia; details: Kramer et al (2002), cited from earlier work
[6] = test system: monocytes; details: Van den Broek et al (1982); cited from earlier work
[7] = test system: human influenza virus; details: very low concentrations; Reimer et al (2002); cited from earlier work
[8] = test system: human rhinovirus (HRV); details: cited from earlier work
[9] = test system: common cold; details: throat gargle; cited from earlier work
[10] = test system: adenovirus; details: Reimer et al (2002), Wutzler et al (2002); cited from earlier work
[11] = typical; cited from earlier work

Molecule | cytochrome P450 induction ([1]; FDA Advisory Committee review of 2002 NDA) | reduction in cold duration ([1]; Phase III data) | Time to Alleviation of Illness (TAI), cold duration ([1]; phase three study, Hayden et al (2003)) | PVP-I concentration in aqueous preparations that may be irritating to the nasal mucosa in some individuals [2] | exposure for a microbicidal effect (4 log reduction) [3] | PVP-I concentration at which virtually all granulocytes destroyed [4] | PVP-I concentration significantly reducing the viability of granulocytes [4] | PVP-I concentration toxic to the nasal cilia (ciliotoxic) ([5]; Reimer et al (2002): complete loss of ciliary function) | PVP-I concentration not ciliotoxic / suitable for use in the nose ([5]; Reimer et al (2002)) | PVP-I concentration substantially degrading monocytes [6] | exposure for a 4 log10 reduction in viable virus count [7] | log reduction in HRV ([8]; 30 second exposure, Wutzler et al (2002)) | reduction in viable virus count ([8]; 30 seconds exposure, any concentration, Reimer et al (2002)) | exposure required for a 4 log reduction (microbicidal effect) ([8]; in vitro, Reimer et al (2002), Wutzler et al (2002)) | microbicidal effect against HRV ([8]; maximum exposure period tested 10 minutes, Kawana et al (1997)) | effect of gargling on cold symptoms and incidence [9] | exposure required for a 4 log reduction (microbicidal effect) [10] | free iodine in PVP-I solutions [11]
Cc1cc(CCCOc2c(C)cc(-c3noc(C(F)(F)F)n3)cc2C)on1 [pleconaril] | a risk of cytochrome P450 induction | one | 6.3 days | – | – | – | – | – | – | – | – | – | – | – | – | – | – | –
povidone-iodine [PVP-I] | – | – | – | greater than 1.0% | 30 seconds | above 0.1% | above 0.05% | ≥ 2.5% | ≤ 1.25% | above 0.1% | ≤ 30 second | 1.1 log | ~1 log | 30 minutes | failed to produce a microbicidal effect against HRV | no significant effect on nasal cold symptoms or bronchial complications, and no benefit in terms of reducing the incidence of the common cold | 5 minutes | less than 30 ppm

Reference: US11000542B2, “Treatment and prevention of the common cold using povidone-iodine” (FIREBRICK PHARMA LIMITED, priority 2014, dated 2021)
